Active and inactive are the calls of the source. No cut-off for these calls is given here.
Assays:
Mus musculus [1] = assay: Anti-osteoporosis activity in ovariectomized BALB/c mouse at 100 nmol/kg/day, sc assessed as increase in post-yield displacement of cortical bone; type: functional
Mus musculus [2] = assay: Anti-osteoporosis activity in ovariectomized BALB/c mouse at 100 nmol/kg/day, sc assessed as increase in work-to-fracture of cortical bone; type: functional
RAW264.7 = assay: Inhibition of RANKL-induced osteoclastogenesis in mouse RAW264.7 cells measured after 110 hrs by TRAcP staining based assay; type: functional, cell-based; conditions: RAW264.7, 110 h
Mus musculus [3] = assay: Anti-osteoporosis activity in ovariectomized BALB/c mouse at 25 nmol/kg, sc assessed as reduction in trabecular spacing; type: functional; parameters: scale not given: the % may be the effect or the level left
Mus musculus [4] = assay: Anti-osteoporosis activity in ovariectomized BALB/c mouse at 100 nmol/kg, sc assessed as decrease in mean phosphate/amide ratio; type: functional; parameters: scale not given: the % may be the effect or the level left
Mus musculus [5] = assay: Anti-osteoporosis activity in ovariectomized BALB/c mouse at 100 nmol/kg/day, sc assessed as increase in ultimate displacement of cortical bone; type: functional
Mus musculus [6] = assay: Anti-osteoporosis activity in ovariectomized BALB/c mouse at 25 to 100 nmol/kg/day, sc assessed as reduction in trabecular bone stiffness; type: functional, organism-based; conditions: dose 25-100 nmol/kg
[7] = Toxicity in ovariectomized BALB/c mouse at 25 nmol/kg, sc assessed as effect on morphological changes in liver; type: organism-based; conditions: in vivo
Mus musculus [8] = assay: Anti-osteoporosis activity in ovariectomized BALB/c mouse at 100 nmol/kg, sc assessed as decrease in augmented acid phosphate content heterogeneity; type: functional; parameters: scale not given: the % may be the effect or the level left
Mus musculus [9] = assay: Anti-osteoporosis activity in ovariectomized BALB/c mouse at 25 to 100 nmol/kg/day, sc assessed as effect on cortical bone microarchitecture; type: functional, organism-based; conditions: dose 25-100 nmol/kg
[10] = Toxicity in ovariectomized BALB/c mouse at 25 nmol/kg, sc assessed as effect on morphological changes in pancreas; type: organism-based; conditions: in vivo
Mus musculus [11] = assay: Anti-osteoporosis activity in ovariectomized BALB/c mouse at 100 microg/kg, iv assessed as increase in mineral crystallinity heterogeneity; type: functional; conditions: dose 100 µg/kg
Mus musculus [12] = assay: Anti-osteoporosis activity in ovariectomized BALB/c mouse at 100 microg/kg, iv assessed as effect on cortical bone microarchitecture; type: functional, organism-based; conditions: dose 100.0 µg/kg
Mus musculus [13] = assay: Anti-osteoporosis activity in ovariectomized BALB/c mouse at 100 microg/kg, iv assessed as reduction in trabecular bone stiffness; type: functional, organism-based; conditions: dose 100.0 µg/kg
[14] = Toxicity in ovariectomized BALB/c mouse assessed as effect on body mass at 100 microg/kg, iv; conditions: in vivo, 0.1 mg/kg, dose 100 µg/kg
Mus musculus [15] = assay: Anti-osteoporosis activity in ovariectomized BALB/c mouse at 100 microg/kg, iv assessed as increase in trabecular bone mass; type: functional; conditions: dose 100 µg/kg
Mus musculus [16] = assay: Anti-osteoporosis activity in ovariectomized BALB/c mouse at 100 microg/kg, iv assessed as increase in trabecular number; type: functional; conditions: dose 100 µg/kg

Row | SMILES | Activity (Mus musculus [1]) | Activity (Mus musculus [2]) | IC50 (RAW264.7) | Activity (Mus musculus [3]) | Activity (Mus musculus [4]) | Activity (Mus musculus [5]) | Activity (Mus musculus [6]) | Activity [7] | Activity (Mus musculus [8]) | Activity (Mus musculus [9]) | Activity [10] | Activity (Mus musculus [11]) | Activity (Mus musculus [12]) | Activity (Mus musculus [13]) | Activity [14] | Activity (Mus musculus [15]) | Activity (Mus musculus [16])
1 | CC[C@H](C)[C@H](NC(=O)[C@H](CO)NC(=O)[C@H](Cc1ccccc1)NC(=O)[C@H](CC(=O)O)NC(=O)[C@H](CO)NC(=O)CNC(=O)[C@H](Cc1ccccc1)NC(=O)[C@H](CO)NC(=O)CNC(=O)[C@H](CCC(=O)O)NC(=O)CNC(=O)[C@@H](N)Cc1cnc[nH]1)C(=O)N[C@@H](C)C(=O)N[C@@H](CC(C)C)C(=O)N[C@@H](CC(=O)O)C(=O)N[C@@H](CCCCN)C(=O)N[C@@H](CC(C)C)C(=O)N[C@@H](C)C(=O)N[C@@H](C)C(=O)N[C@@H](CCCNC(=N)N)C(=O)N[C@@H](CC(=O)O)C(=O)N[C@@H](Cc1ccccc1)C(=O)N[C@H](C(=O)N[C@@H](CC(N)=O)C(=O)N[C@@H](Cc1c[nH]c2ccccc12)C(=O)N[C@@H](CC(C)C)C(=O)N[C@@H](CC(C)C)C(=O)N[C@@H](CCC(N)=O)C(=O)N[C@H](C(=O)N[C@@H](CCCCN)C(N)=O)[C@@H](C)O)C(C)C | 62% | 33% | 36 pM | 17% | 5% | 33% | Active | Non-Toxic | 18% | inactive | Non-Toxic | – | – | – | – | – | –
2 | O.O=P(O)(O)C(O)(Cn1ccnc1)P(=O)(O)O [ZOLEDRONIC ACID] | – | – | – | – | – | – | – | – | – | – | – | 21% | inactive | Active | Non-Toxic | 15% | 12%

Reference: ChEMBL document CHEMBL5052819, “Peptide targeting gip and glp-2 receptors for treating bone disorders” (2020)
